Results as given in PMC12408707, “Daunorubicin and its hydroxy metabolite in cardiomyocytes: insights into cellular kinetics, toxicity, DNA damage, and dexrazoxane-induced cardioprotection” (Archives of Toxicology, 2025).

Target: T1, topoisomerase IIβ (TOP2B) (Homo sapiens, UniProt Q02880)
T1 construct: recombinant human TOP2B enzyme (Inspiralis)
Experiment: kDNA decatenation assay with recombinant human TOP2B, agarose gel
Assay type: biochemical

T1 sequence (Q02880 2-1626): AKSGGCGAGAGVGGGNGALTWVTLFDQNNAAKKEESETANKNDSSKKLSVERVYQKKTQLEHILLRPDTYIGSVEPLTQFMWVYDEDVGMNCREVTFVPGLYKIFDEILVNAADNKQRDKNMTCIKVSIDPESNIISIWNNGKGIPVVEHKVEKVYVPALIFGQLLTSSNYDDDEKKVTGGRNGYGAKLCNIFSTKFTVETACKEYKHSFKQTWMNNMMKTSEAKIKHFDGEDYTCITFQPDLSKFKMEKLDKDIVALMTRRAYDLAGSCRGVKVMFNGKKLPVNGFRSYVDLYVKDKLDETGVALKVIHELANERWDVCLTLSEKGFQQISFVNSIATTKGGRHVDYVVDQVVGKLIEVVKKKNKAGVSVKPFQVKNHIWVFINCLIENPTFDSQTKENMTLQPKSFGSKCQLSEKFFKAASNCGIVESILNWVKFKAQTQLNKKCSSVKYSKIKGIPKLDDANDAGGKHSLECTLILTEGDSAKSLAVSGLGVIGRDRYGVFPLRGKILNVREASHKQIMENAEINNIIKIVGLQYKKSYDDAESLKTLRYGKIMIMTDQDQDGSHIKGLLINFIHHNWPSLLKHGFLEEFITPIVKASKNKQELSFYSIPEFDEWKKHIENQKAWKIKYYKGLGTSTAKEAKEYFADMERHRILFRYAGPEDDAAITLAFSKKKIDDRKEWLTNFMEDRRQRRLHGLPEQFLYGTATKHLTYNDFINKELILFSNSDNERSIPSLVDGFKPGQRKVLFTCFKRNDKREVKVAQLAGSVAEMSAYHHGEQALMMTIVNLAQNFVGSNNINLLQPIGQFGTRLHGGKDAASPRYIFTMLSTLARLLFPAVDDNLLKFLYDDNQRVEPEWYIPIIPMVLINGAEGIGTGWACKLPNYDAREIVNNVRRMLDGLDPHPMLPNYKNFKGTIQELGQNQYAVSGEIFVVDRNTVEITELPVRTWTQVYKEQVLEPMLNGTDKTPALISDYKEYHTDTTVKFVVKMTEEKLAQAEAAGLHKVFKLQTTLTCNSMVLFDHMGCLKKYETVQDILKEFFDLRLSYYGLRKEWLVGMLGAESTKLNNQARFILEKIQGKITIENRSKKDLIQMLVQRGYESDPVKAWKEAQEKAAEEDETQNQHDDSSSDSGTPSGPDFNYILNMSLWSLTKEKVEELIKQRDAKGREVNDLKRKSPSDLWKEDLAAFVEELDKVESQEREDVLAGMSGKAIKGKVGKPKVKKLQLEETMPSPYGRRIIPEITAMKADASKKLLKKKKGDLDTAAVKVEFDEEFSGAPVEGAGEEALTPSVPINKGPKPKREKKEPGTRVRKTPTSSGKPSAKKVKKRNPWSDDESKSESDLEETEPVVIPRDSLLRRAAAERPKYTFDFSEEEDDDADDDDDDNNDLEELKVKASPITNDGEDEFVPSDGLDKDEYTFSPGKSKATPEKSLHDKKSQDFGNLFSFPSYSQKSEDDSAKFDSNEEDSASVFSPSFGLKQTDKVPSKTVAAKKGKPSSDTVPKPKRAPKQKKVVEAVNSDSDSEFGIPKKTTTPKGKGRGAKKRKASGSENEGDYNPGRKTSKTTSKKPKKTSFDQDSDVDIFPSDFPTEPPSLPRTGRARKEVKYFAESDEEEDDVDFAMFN

Structure (SMILES) | IC50 [µM]
COc1cccc2c1C(=O)c1c(O)c3c(c(O)c1C2=O)C[C@@](O)(C(C)=O)C[C@@H]3O[C@H]1C[C@H](N)[C@H](O)[C@H](C)O1 [DAU, daunorubicin] | 4 ± 1
COc1cccc2c1C(=O)c1c(O)c3c(c(O)c1C2=O)C[C@@](O)(C(C)O)C[C@@H]3O[C@H]1C[C@H](N)[C@H](O)[C@H](C)O1 (some centres unmarked) [DAU-ol, daunorubicinol] | 17 ± 4
